Each block holds one molecule with its values, some of them ahead of it. Where no end group is shown, it is not given here.
Tests used:
22Rv.1 cells = assay: Clonogenic assay; assay type: cell-based; settings: neomycin selection, colonies quantified; mean ± SEM of at least three independent experiments
Source text: Figure 5 An N-terminal unfolded fragment of the Bag-1 peptide is sufficient to reduce tumor cell growth. A. Schematic diagram of the Bag-1 peptide and its deletion mutants. The ubiquitin-like domain is represented in blue and the BAG domain in red. The numbers refer to the amino acid positions of the different domains. The amino acid residues are numbered following the numbering for Bag-1L. B. Prediction of the secondary structure of the Bag-1 peptide, showing an N-terminal β-hairpin from the ubiquitin-like domain (blue) and a C-terminal α-helix from the BAG domain (red). C. Normalized circular dichroism spectra of the Bag-1 peptides. 30 µM of the Bag-1 peptide were measured in 20 mM KHPO4 buffer, pH 6.8 (black line). Its α-helical content was estimated to be approximately 25% by deconvolution of the spectra (red line). 12 µM of the N-term peptide (green line) and 11 µM of C-term (blue line) were measured under the same conditions. D. ^1H^15N-HSQC NMR spectrum of ^15N-labeled Bag-1 peptide (202–269) in 20 mm KHPO4 buffer, pH 6.8, at 23°C. […] The Hδ and Hε side chain signals of asparagine and glutamine are connected by thin lines. E. The N-terminal region of the Bag-1 peptide is important for GRP78 binding. 400 µg of 22Rv.1 cell lysate were incubated with glutathione-agarose beads carrying 15 µg GST-N-term peptide (lane 2), GST-C-term peptide (lane 3), GST-ΔUbi peptide (lane 4), GST-Bag-1(202–269) peptide (lane 5) and GST (lane 6). The beads were washed and the bound proteins were separated by 10% SDS-PAGE and subjected to Western blotting using antibodies directed against GRP78 or GST. […] F. Clonogenic assay of the Bag-1 peptides expressed in 22Rv.1 cells. Cells transfected with the indicated constructs were selected in medium containing neomycin and the colonies formed were quantified. Shown are the mean value ±SEM of at least three independent experiments using three different plasmid preparations (*p<0.05). […] Six-week old athymic nude mice were injected subcutaneously on both flanks with 5×10^6 cells of each stable clone. Tumor size was measured once per week using a caliper and expressed as tumor volume in mm^3. Shown are the tumor volumes of clones transfected with the N-terminal peptide (G), the C-terminal peptide (H) and the ΔUbi peptide (I). Each point represents the mean volume and standard deviation of at least 5 to 10 tumors.
(§1) Figure 6 Selectivity of action of the Bag-1 peptide. A Amino acid sequence of the 19mer peptide and its deletion mutants. B GST pull-down assay performed incubating 400 µg of 22Rv.1 cell lysate and 25 µg of GST-fused deletion mutants of the 19mer peptide. After the pull-down experiment, Western blots were carried out with anti-GRP78/BiP and GST antibodies. C. Fluorescence polarization (FP) assays with a 10 nM FITC-labeled 7-mer Bag-1 peptide and dilutions of the GST-fused substrate binding domain of GRP78 in 60 µl of Tris-GSH buffer (50 mM Tris, 10 mM reduced glutathione and 0.1% BSA, pH 8.0). Triplicate samples were measured after 5 h of incubation at room temperature with an Infinite F-200 reader (Tecan) with excitation at 490 nm and emission at 535 nm. Binding constants were determined from three independent experiments using non-linear regression in Sigma Plot 10.0. D. Competition assays with a complex of 10 nM of FITC-labeled Bag-1 7-mer peptide and 0.75 mg/ml GST-fused GRP78 substrate binding domain was measured against a dilution series from 100 µM to 0.1 nM of wild-type Bag-1 7-mer peptide (filled line) or triple mutant peptide (dotted line) in 40 µl of Tris-GSH buffer. FITC-peptide and the FITC-peptide-protein complex were used as controls. Fluorescence polarization was determined as described above and IC50 values were determined in Sigma Plot. […]

[1] = system: unfolded protein response in 22Rv.1 cells; assay: UPR modulation, Western blot / PCR in 22Rv.1 cells; assay type: cell-based
Experimental: Unless otherwise stated, stable transfection was carried out in 22Rv.1 or BPH-1 cells with 10 µg of plasmid DNA using FuGene 6™ (Roche Diagnostics Mannheim, Germany) Stably transfected 22Rv.1 cells were selected with 0.8 mg/ml while BPH-1 cell clones were selected with 1.2 mg/ml G418. LNCaP, PC3, DU145, PNT-2 and RWPE-1 cell clones were selected with 1 mg/ml G418. Specific downregulation of GRP78 expression was achieved by transfecting siRNA-duplexes (GRP78∶5′-[…]-3′) twice in 72 h using HiPerfect™ (Qiagen Hilden, Germany). siRNA against GFP (5′-[…]-3′) was used as a control. Western blot analysis was performed as previously described.
Figure 3 The Bag-1 peptide modulates the UPR and sensitizes 22Rv.1 cells to ER-stress. A. UPR modulation upon Bag-1 peptide overexpression. Pooled clones of 22Rv.1 cells transfected with pcDNA3.1-HA-Bag-1 68 amino acid peptide or an empty expression vector were treated with 300 nM thapsigargin (TG) for the indicated time points. Cells were lysed and subjected to Western blot analysis using the indicated antibodies or phospho-specific antibodies. B. The Bag-1 peptide sensitizes 22Rv.1 cells to ER-stress induced apoptosis. Pooled clones of 22Rv.1 transfected with the Bag-1 peptide or the empty expression vector were treated with thapsigargin (TG) or glucose-starved (GS) for 24 h. The cells were lysed and subjected to Western blot analysis using anti-PARP and caspase 4 specific antibodies. Anti-HA antibody was used to detect the HA-Bag-1 peptide. […] C. […] Pooled clones of 22Rv.1 expressing HA-tagged Bag-1 peptide or an empty expression vector were transfected with GRP78/BiP siRNA or control GFP siRNA. The cells were lysed and Western blot was carried out with anti-PARP, anti-GRP78 and anti-HA antibodies. β-actin antibody was used to determine the level of protein loaded on the gel.
(§2) A. Real time PCR analysis of ATF6 gene expression following thapsigargin (300 nM) treatment for the indicated time points in 22Rv.1 cell clones with empty vector control (open bars) and peptide-expressing clones (filled bars). The RNA was extracted using PeqGold RNA pure (PeqLab, Germany) kit according to manufacturer’s instructions. For gene expression analysis, the following primers were used: Rib36 forward 5′-[…]-3′; reverse 5′-CCGGATATGAGGCAGCAG-3′; ATF6 forward 5′-[…]-3′; reverse 5′-[…]-3′. Each bar represents the mean of three independent experiments ± SEM. *p<0.05. B. Western blot analysis of ATF6 and its cleaved product (cATF6) in LNCaP cells stably expressing the empty vector control or the Bag-1 peptide. Anti-ATF6 specific antibody and an anti-HA specific antibody were used for the Western blot. β-actin antibody was used to determine equal loading control. Mouse monoclonal anti-ATF6 antibody was purchased from Imgenex (Hamburg, Germany), mouse monoclonal anti-HA antibody (HA.11 clone 16B12) was purchased from Covance (Munich, Germany) and anti-β-actin antibody was purchased from Abcam (Cambridge, UK). (TIF) Click here for additional data file.
Supplementary file pone.0045690.s004.tif: Figure S4 The Bag-1 peptide induces GCN2 phosphorylation. 22Rv.1 cells stably expressing the empty vector control or the Bag-1 peptide were treated with thapsigargin (300 nM) for 16 h and subjected to Western blot analysis using anti-phospho-GCN2, GCN2 and HA-specific antibodies. The filters used in this experiment for the GCN2 signals are the same filters used in Figure 3A. The HA-Bag-1 peptide and the β-actin signals are therefore identical to that of Figure 3A. (TIF) Click here for additional data file.

[2] = system: LNCaP prostate cancer cells; assay: ATF6 Western blot in LNCaP cells; assay type: cell-based; settings: thapsigargin
Experimental: as §2

[3] = molecular target: T1, GST-fused GRP78 substrate binding domain (Homo sapiens, UniProt P11021); assay: Fluorescence polarization competition assay; settings: displacement of 10 nM FITC-labeled Bag-1 7-mer from 0.75 mg/ml GST-GRP78 SBD; competitor 100 µM to 0.1 nM, Tris-GSH buffer
T1 construct: GRP78-SBD (GRP78 409–651); made in house
T1 sequence (P11021 409-651): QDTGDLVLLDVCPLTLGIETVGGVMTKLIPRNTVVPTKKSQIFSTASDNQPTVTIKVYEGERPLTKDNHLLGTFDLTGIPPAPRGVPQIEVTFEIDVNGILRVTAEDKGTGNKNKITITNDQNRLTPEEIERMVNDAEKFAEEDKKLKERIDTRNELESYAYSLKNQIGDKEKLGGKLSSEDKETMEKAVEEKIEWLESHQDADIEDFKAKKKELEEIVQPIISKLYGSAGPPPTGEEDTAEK
Experimental: Fluorescence polarization assays were carried out using an Infinite F-200 reader (Tecan) with excitation at 490 nm and emission at 535 nm.
as §1, with “[…] The colonies were stained” for “FITC-peptide”, “quantified.” for “the FITC-peptide-protein complex were used as controls. Fluorescence polarization was determined as described above and IC50 values were determined in Sigma Plot.”

[4] = molecular target: T2, GST-fused GRP78-SBD (GRP78 409-651) (UniProt P11021 409-651); assay: fluorescence polarisation; 10 nM FITC-labeled 7-mer peptide with dilutions of GST-fused GRP78 SBD in Tris-GSH buffer (50 mM Tris, 10 mM reduced glutathione, 0.1% BSA, pH 8.0), 5 h at room temperature; settings: both partners purified
T2 construct: Used on beads in pull-downs and in solution (GST kept) in fluorescence polarisation; also called GST-GRP78(SBD); source: bacterially purified GST fusion (pGEX4T.1)
T2 sequence (P11021 409-651): as above

[5] = molecular target: T2, GST-fused GRP78-SBD (GRP78 409-651); assay: fluorescence polarisation; competition: complex of 10 nM FITC-labeled 7-mer peptide and 0.75 mg/ml GST-fused GRP78 SBD against 100 µM to 0.1 nM unlabeled peptide in Tris-GSH buffer; settings: both partners purified

Molecule: 19-mer mutant: 202–220 amino acid peptide with mutated core (VML exchanged with alanine residues) (TPLSALGIQDGCRAAAIGK; also: HA tag, end not given here)
22Rv.1 growth in clonogenic assay (22Rv.1 cells): significantly reduced the ability of the 19 amino acid sequence to inhibit 22Rv.1 cell growth

Molecule: C/C=C(/C)C(=O)O[C@H]1C(C)=C2[C@H]([C@@H]1OC(=O)CCCCCCC)[C@@](C)(OC(C)=O)C[C@H](OC(=O)CCC)[C@@]1(O)[C@H]2OC(=O)[C@@]1(C)O [thapsigargin, reference compound]
ATF6 expression ([1]; 22Rv.1 cells, thapsigargin 300 nM): enhanced the expression of this gene
UPR activation ([1]; 22Rv.1 vector control cells, 300 nM thapsigargin): all three arms of the UPR were activated
ATF6 expression (protein level) [2]: also seen in LNCaP prostate cancer cells at the protein level

B1: FITC-labeled 7-mer Bag-1 peptide (214RVMLIGK220) (peptide)
peptide: RVMLIGK
modifications: also: FITC label, place not given here
notes: core peptide of Bag-1, residues 214-220 on Bag-1L numbering; also called FITC-peptide
Kd [4]: 5.7 ± 0.8 µM

Continued, values first:

IC50 [3]: > 100 µM
Molecule: RAAAIGK [RAAAIGK]

IC50 [5]: > 100 µM
Molecule: RAAAIGK [triple mutant Bag-1 7-mer peptide (214RAAAIGK220)]

IC50 [5]: 2.6 ± 0.5 µM
B2: wild-type Bag-1 7-mer peptide (214RVMLIGK220), unlabeled (peptide)
peptide: RVMLIGK
notes: core peptide of Bag-1, residues 214-220 on Bag-1L numbering; also called seven amino acid core peptide

Source: publication PMC3462190, “A Peptidic Unconjugated GRP78/BiP Ligand Modulates the Unfolded Protein Response and Induces Prostate Cancer Cell Death” (PLoS ONE, 2012)
